# Measured values taken from US20190032014A1, “USING MICROBIOTA METABOLITES TO DIFFERENTIATE NAÏVE T-CELLS AND RELATED METHODS TO INDUCE OR PREVENT INFLAMMATORY CONDITIONS” (THE TEXAS A&M UNIVERSITY SYSTEM, priority 2016, published 2019).
# “Also recorded” adds a separate entry of the source.
# Columns and labels:
# [1] = tested on: CD4+ CD25− naïve T cells; test: In vitro naïve T cell differentiation, Treg-skew (FoxP3+ by FACS); assay type: cell-based, C57BL/6 mice; conditions: for effect on % FoxP3+ cells / Treg differentiation: vs DMF control; for % FoxP3+ cells: indole less than 500 μM
# Procedure: (§1) Mesenteric lymph node (MLN) and spleen are harvested from WT or FOXP3^EGFP C57Bl/6 mice and homogenized. Spleen tissue is subjected to red blood cell lysis and pooled into a single cell suspension for counting. Counted cells are resuspended in sterile FACS buffer (PBS++ with 05% bovine serum albumin) at a concentration of ˜5×10^7 cells/mL and stained for 45 minutes at 4° C. with anti-CD4 and anti-CD25 fluorophore-conjugated monoclonal antibodies (mAb). After two washes, the stained cells are resuspended at ˜6×10^6 cells/mL in FACS buffer and immediately sorted. […] TDMMs are solubilized in DMF at 2 M and used at desired concentrations (e.g., 0.01, 0.1, 0.5 and 1.0 mM) in growth media; DMF in growth media (0.05%) is used as a solvent control.
# (§2) The % of Treg or Th17 cells are determined based on the expression of signature transcription factors, FoxP3 and Rorγt, respectively. In addition, signature cytokine markers for Treg and Th17, TGFβ or IL-17, respectively, among others are measured using intracellular cytokine staining. Since it is possible that a cell could be positive for FoxP3 and still express some IL-17, the final % of Tregs are determined as the cell population that is FoxP3+TGFβ+ Rorγt-IL-17−. Similarly, the % of Th17 cells are determined as the population that is FoxP3-TGFβ− Rorγt+IL-17+.
# (§3) CD4+ CD25− T cells were isolated to high purity (>98%) from the pooled spleen and mesenteric lymph nodes of C57BL/6 mice (Jackson Labs) with a BD FACS Aria II flow cytometer. Fc Block (BD), αCD4-efluor450 (eBioscience clone GK1.5) and αCD25-PECy7 (eBioscience clone PC61.5) antibodies were used for staining before sorting.
# (§4) For Th1-skew: 5 ng/mL IL-12 (Peprotech cat. #210-12) and 10 µg/mL αIL-4 (BioXCell clone 11B11) were added to culture. For Th2-skew: 10 ng/mL IL-4 (Peprotech) and 10 μg/mL αIFN-γ (BioXCell clone R4-6A2) were added to culture. For Th17-skew: 10 ng/mL IL-6 (Peprotech), 5 ng/mL IL-23 (R&D), 0.5 ng/mL TGF-β (Peprotech), 10 μg/mL al-4 (BioXCell clone 11B11), and 10 μg/mL αIFN-γ (BioXCell clone R4-6A2) were added to culture. For Treg-skew: 2 ng/mL TGF-β (Peprotech) and 100 U/mL IL-2 (Roche) were added to culture. Sodium Propionate, sodium acetate, sodium butyrate and sodium chloride (all from Sigma-Aldrich) were solubilized in media and added to culture. Indole was solubilized in DMF (both from Sigma-Aldrich) at 2M and brought to final concentration in media. MGCD0103 (Selleck Chemicals) was solubilized in DMF at 2 mM and brought to final concentration in media. A 0.05% DMF solvent control was used for all experiments.
# [2] = tested on: CD4+ CD25− naïve T cells; test: In vitro naïve T cell differentiation, Th17-skew (IL-17+ by FACS); assay type: cell-based, C57BL/6 mice; conditions: for effect on % IL-17+ cells / Th17 differentiation: vs DMF control
# Procedure: as §1, §2, §3, §4
# [3] = tested on: iTregs; test: iTreg cytokine expression (TGF-β, IL-10); assay type: cell-based, mice
# Procedure: FOXP3-EGFP naïve CD4+ CD25− cells cultured in αCD3/28 coated wells with Treg-skew cytokines and indole or solvent control were cultured for 72 hours, and assessed for FoxP3 expression and proliferation by CFSE dilution.
# The iTregs were next assessed for cytokine production when conditioned with indole or butyrate.
# For flow cytometry, cells are treated with Golgi plug (Brefeldin A) for four hours and then stained with fluorophore-conjugated mAbs against both inflammatory (e.g., IL-6, IL-12, IL-17, TNF-α) and anti-inflammatory (e.g., IL-10, IL-35, TGF-β) cytokines. Samples are stained with the maximum number of antibodies. Furthermore, expression of established Treg markers (FOXP3, CD25hi, CD103, CD62L, GITR, PD-1, CD152, CD127, ICOS, Granzyme-B) [Vignali, D. A., L. W. Collison, and C. J. Workman, Nat Rev Immunol 8(7):523-32. (2008); Chen, J., et al., Int Immunopharmacol 11(5):610-7 (2011)] and markers of an inflammatory phenotype (RORγT) can be analyzed. […] For all conditions, Tregs generated without the TDMM can be used as the control. The effect of the TDMMs on suppression of effector T cell proliferation is determined as described for FIG. 4. Such assays permit determination of whether the iTregs generated with different TDMMs are functional as natural Tregs.
# [4] = tested on: wild-type or AhR KO T cells; test: T cell differentiation in wild-type vs AhR KO T cells; assay type: cell-based, mice
# Procedure: The aryl hydrocarbon receptor (AhR) is implicated in the differentiation of Treg and Th17 cells. The role of AhR was assessed with respect to indole's effect on Treg augmentation. Wild-type and AhR KO naïve T-cells were conditioned with increasing amounts of indole and then assessed for % of FoxP3 expression. […] Additionally, the role of AhR was assessed with respect to indole's effect on Th17 inhibition.
# The AhR knockout was further investigated for iTreg homing markers, CD62L and α4β7, as described above.
# Next, the AhR knockout was further investigated for the impact of AhR on 5-HI-mediated T cell differentiation.
# [5] = tested on: DSS colitis; test: DSS colitis model; conditions: 5% DSS 7 days, then indole 7 days; wild-type vs Rag-deficient mice
# Procedure: FIG. 32A: Wild-type C57B16 mice were treated with 5% DSS, or not, in drinking water for 7 days. […] Individual mouse weight was recorded daily throughout experiment as a measure of inflammation. FIG. 32B: Mice were treated as in FIG. 32A, only mice were Rag-deficient mice, which lack lymphocytes (T- and B-cells).
# For FIG. 32A, wild-type C57B16 mice were treated with 5% DSS, or not, in drinking water for 7 days. […] Individual mouse weight was recorded daily throughout experiment as a measure of inflammation. For FIG. 32B, Rag-deficient mice, which lack lymphocytes (T- and B-cells), were treated as in FIG. 32A and individual weight was recorded.
compound,measurement,setting,value
"c1ccc2[nH]ccc2c1 [Indole, indole]",increase in the % of FOXP3+ cells compared to cells exposed to 1 mM indole,"[1]; 750 μM indole, absence of IL-4",4%
same,proportion of FoxP3+ iTregs,"[1]; 1 mM indole, Treg skewing conditions, solvent control 25%",68.8%
same,% FoxP3+ cells with reduced / titrated TGF-β,"[1]; TGF-β below threshold for Treg induction, low and high titrations",Treg induction occurs notwithstanding low levels of TGF-β; also recorded: increased the % FoxP3+ cells
same,FoxP3 induction under Th0 conditions,[1]; Th0 conditions (no TGF-β),induced FoxP3 even under Th0 conditions
same,"% FoxP3+ cells, indole, butyrate and 5-HI all combined",[1]; Treg skewing conditions,the % FoxP3+ increased again
same,"% FoxP3+ cells, indole combined with 5-HI","[1]; Treg skewing conditions, vs 5-HI alone",negated the inhibitory effects of 5-HI on % FoxP3+ cells
same,effect on % FoxP3+ cells / Treg differentiation,[1]; Treg skewing conditions,significantly increased the % of FoxP3+ cells
same,effect on % FoxP3+ cells / Treg differentiation,"[1]; Treg skewing conditions, listed as indole",dose-dependent; also recorded: strong pro-Treg response; also recorded: significantly increased the % FoxP3+ cells
same,% FoxP3+ cells,[1]; IL-4 6 ng/mL,25%
same,% FoxP3+ cells,[1]; IL-4 10 ng/mL,28%
same,per-cell expression of FOXP3 (GFP),"[1]; indole-induced iTregs, pre- and post-sort, 72 hours",higher per-cell expression of FOXP3 (GFP) both pre- and post-sort
same,expansion of Tregs (Foxp3+ %) at standard TGF-β dose,[1]; standard TGF-β dose,doubles
same,level of FoxP3 expression (MFI),[1]; vs solvent control,significantly increased
same,expansion of Th17 cells (proportion),"[2]; 1 mM indole, Th17-skewing conditions, solvent control 13.5%",1.4%
same,"% IL-17+ cells, indole added to butyrate and 5-HI",[2]; Th17 skewing conditions,generally reversed after conditioning with indole
same,"% IL-17+ cells, indole combined with 5-HI","[2]; Th17 skewing conditions, vs 5-HI alone","not just negated, but actually reversed"
same,effect on % IL-17+ cells / Th17 differentiation,[2]; Th17 skewing conditions,significantly decreased the % of IL-17+ cells
same,effect on % IL-17+ cells / Th17 differentiation,"[2]; Th17 skewing conditions, listed as indole",dose-dependent; also recorded: inhibits a Th17 response; also recorded: inhibits the development of illustrates % IL-17+ cells
same,Rorγt expression in Th17 cells,[2]; unpublished data,inhibits Rorγt expression in Th17 cells
same,level of IL-17 expression (MFI),[2]; vs solvent control,decreased
same,TGF-β secretion,"[3]; indole-conditioned Tregs vs control iTregs (DMF), overnight re-stimulation with αCD3",secrete more TGF-β than conventional control iTregs (DMF)
same,IL-10 expression,[3]; indole-conditioned iTregs,inhibition of IL-10 expression
same,TGF-β expression,[3]; indole-conditioned vs butyrate-conditioned iTregs,increased TGF-β expression over butyrate-conditioned iTregs
same,% IL-17+ in wild-type vs AhR KO T cells,[4],decreased significantly more in wild-type over AhR KO T cells
same,"AhR dependence of effects (AhR knockout mice, unpublished data)",[4],some of the effects of indole are not AhR dependent
same,FoxP3+ % in wild-type vs AhR KO T cells,[4]; increasing amounts of test substance,increased significantly more in wild-type over AhR KO T cells
same,expression of CD62L and α4β7 in FoxP3+ wild-type or AhR KO T cells,[4]; with or without RA,roughly equivalent with only minor differences
same,colitis (mouse weight as measure of inflammation),[5],inhibits colitis in a T-cell-dependent manner
